Values of other authors, collected in patent US8882743B2, “Apparatus and method for application of a pharmaceutical to the tympanic membrane for photodynamic laser myringotomy” (priority 2006, dated 2014).

Test system: tympanic membrane
Conditions: lance myringotomy with concomitant mitomycin-C versus myringotomy without mitomycin-C

SMILES: CO[C@@]12[C@H](COC(N)=O)C3=C(C(=O)C(C)=C(N)C3=O)N1C[C@@H]1N[C@@H]12 [mitomycin-C]
- time required for closure of the fistulae formed: statistically significant increase
